Legend:
[1] = tested on: VSMCs stimulated with AngII; assay: Pro-fibrotic response: extracellular collagen content (Sirius Red kit) in VSMCs stimulated with AngII; format: cell-based; conditions: rat VSMCs, 100 nM AngII 48 hours; JG26 1 ̂mol/L, erlotinib 1 ̂mol/L, PBA 10 mmol/L pretreated 30 min; adenovirus 100 m.o.i.
Procedure: (§1) VSMCs were prepared from thoracic aortas of male Sprague-Dawley rats by the explant method as described previously^21. VSMCs were subcultured in DMEM containing 10% fetal bovine serum, penicillin and streptomycin. Cells from passage 3 to 10 at 80˜90% confluence were made quiescent by incubation with serum-free medium for 2-3 days.
To evaluate pro-fibrotic response, serum-starved VSMCs were stimulated with 100 nM AngII for 48 hours and extracellular cellular collagen content was quantified by Sirius Red collagen quantification kit (Chondrex) according to the manufacture's protocol. Recombinant adenoviral vector encoding rat ADAM17 siRNA was created and specificity and efficiency has been reported^11. VSMCs were infected with 100 m.o.i. adenovirus prior to the AngII stimulation as reported previously^11. ADAM17 selective inhibitor compound #21 (JG26)^8 was generated as reported. VSMCs were pretreated
with 1 ̂mol/L JG26 or vehicle (0.1% DMSO in final) for 30 min prior to the AngII stimulation. 4-phenylbutyrate (PBA) was obtained from Scandinavian Formulas and solubilized in DMEM. VSMCs were pretreated with 10 mmol/L PBA for 30 min.
Erlotinib (OSI Pharmaceuticals) was obtained from Genentech. VSMCs were pretreated with 1 ̂mol/L erlotinib for 30 min.
To test for the role of ADAM17 in AngII-induced vascular fibrosis, extracellular collagen content was evaluated in VSMCs stimulated with AngII. Adenovirus encoding ADAM17 siRNA^11 attenuated the AngII-induced enhancement in collagen content (FIG. 4A and 4B). Treatment of VSMCs with ADAM17 antibody A9B8, a highly-selective ADAM17 inhibitor JG26/compound 21^22, an EGFR kinase inhibitor erlotinib or a chemical ER chaperone PBA also attenuated AngII-induced enhancement in collagen content (FIG. 4C). As shown with the ADAM17 siRNA^11, A9B8 as well as JG26 inhibited AngII-induced EGFR transactivation assessed with an auto-phosphorylation site antibody (FIG. 4D).

EGFR = assay: AngII-induced EGFR transactivation in VSMCs, immunoblotting with auto-phosphorylation site antibody; format: cell-based; conditions: rat VSMCs, 100 nM AngII, auto-phosphorylation site antibody (Tyr1068)
Procedure: as §1
Immunoblotting (IB) was performed as previously described^21. Quiescent VSMCs grown on 6-well plates were stimulated with 100 nM AngII (Sigma) for specified durations. The reaction was terminated by the replacement of medium with 100 ̂L of 1xSDS lysis buffer. 40 ̂L of the cell lysates were subjected to SDS-PAGE gel electrophoresis and electrophoretically transferred to a nitrocellulose membrane. The membranes were then exposed to primary antibodies overnight at 4° C. After incubation with the peroxidase linked secondary antibody for 1 h at room temperature, immunoreactive proteins were visualized using a chemiluminescence reaction kit. […]
To test for the role of ADAM17 in AngII-induced vascular fibrosis, extracellular collagen content was evaluated in VSMCs stimulated with AngII. […] As shown with the ADAM17 siRNA^11, A9B8 as well as JG26 inhibited AngII-induced EGFR transactivation assessed with an auto-phosphorylation site antibody (FIG. 4D).

| Compound | AngII-induced enhancement in collagen content [1] | AngII-induced EGFR transactivation (EGFR) |
| --- | --- | --- |
| C#Cc1cccc(Nc2ncnc3cc(OCCOC)c(OCCOC)cc23)c1 [erlotinib, Erlotinib] | attenuated | – |
| NC(=O)NCCC[C@@H](NS(=O)(=O)c1ccc(OCc2cc(Br)cc(Br)c2)cc1)C(=O)NO [JG26, reference compound] | attenuated | inhibited |
| 4-phenylbutyrate [PBA] | attenuated | – |

— patent US20190015505A1, “Method of Mediating Cardiovascular Hypertrophy and Perivascular Fibrosis Induced by Angiotensin II” (UNIVERSITY OF MACAU, priority 2017, published 2019)
